Entries after “also recorded” stand apart in the source; their conditions may differ. Read-outs that look alike come from different tables or passages of the source.
Columns and labels:
HTLV-I = assay: Co-culture assay for HTLV-I, virus replication by p19 Gag ELISA; format: cell-based; settings: for concentration inhibiting HTLV-I replication as measured by p19 ELISA: 2 weeks; for antiviral activity: 2 weeks post infection, up to 25 μM; for EC50: read-out: HTLV-I EC50; for suppression of virus replication greater than 50% (p19 ELISA): 2 and 4 weeks co-culture; for concentration inhibiting HTLV-I virus replication from infected PBMCs: 3 weeks post-infection
Description: PBMC Preparation: Fresh human peripheral blood mononuclear cells (PBMCs), obtained from Biological Specialty Corporation, Bristol, Pa., were confirmed as seronegative for HIV and HBV. Depending on the volume of the donor blood received, the leukophoresed blood cells were washed several times with PBS. After washing, the leukophoresed blood was diluted 1:1 with Dulbecco's phosphate buffered saline (PBS) and layered over 15 mL of Ficoll-Hypaque density gradient in a 50 mL conical centrifuge tube. These tubes were then centrifuged for 30 min at 600 g. Banded PBMCs were gently aspirated from the resulting interface and subsequently washed three times with PBS by low speed centrifugation. After the final wash, cells were enumerated by trypan blue dye exclusion and re-suspended at 1×10^6 cells/mL in RPMI 1640 with 15% Fetal Bovine Serum (FBS), 2 mmol/L L-glutamine, 2 μg/mL phytohemagglutinin (PHA-P), 100 Units/mL penicillin and 100 μg/mL streptomycin and allowed to incubate for 48-72 hr at 37° C.
After incubation, PBMCs were centrifuged and resuspended in PBMC medium (RPMI 1640 with 15% FBS, 2 mmol/L L-glutamine, 100 U/mL penicillin, 100 μg/mL streptomycin and 20 U/mL recombinant human IL-2). The cultures were then maintained for the remainder of the experiment by exchange of half the culture volume with fresh IL-2 containing tissue culture medium every 3 days. Assays were initiated with PBMCs that had been induced to proliferate for 72 hr. Stimulated PBMCs from two donors were pooled together to minimize the variability between individual donors and 8×10^6 cells were resuspended in 9 mL of fresh tissue culture medium per T25 flask.
HDP-TFV was evaluated at concentrations of 0.04, 0.2, 1 and 10 μM. AZT and tenofovir were evaluated at concentrations of 0.1, 1, 5 and 25 μM. HDP-TFV, AZT, or tenofovir were added to the PBMCs 10 hours prior to infection.
MT-2 Preparation: MT-2 cells were obtained from the NIH AIDS Research and Reference Reagent Program and passaged in T-75 flasks in RPMI 1640 medium, supplemented with 10% heat inactivated fetal bovine serum, 2 mmol/L L-glutamine, 100 U/ml penicillin and 100 μg/ml streptomycin. Total cell and viability quantification were performed using hemocytometer and trypan blue dye exclusion. The cells were incubated in 10 mL of 200 μg/mL mitomycin C for 1 hour at 37° C./5% CO2, washed 3 times in Dulbecco's phosphate buffered saline (DPBS), and resuspended in PBMC medium at 1.6×10^6 cells per mL. One mL of treated MT-2 cells was added to each T25 flask, except for the PBMC only control.
(§1) Co-Culture for HTLV-I Replication: Cell cultures were incubated at 37° C./5% CO2 for four weeks. Cell viability and density was monitored by trypan blue dye exclusion test. Cell density was readjusted to 8×10^5 cells per mL on days 3, 7, 10, 14, 21 and 28. Compound was added with the half-volume fresh medium exchange on days 3, 7, and 10. Supernatant was collected on days 14, 21 and 28 for measurement of HTLV-I virus replication by p19 Gag ELISA. Cell samples were also collected on days 14 and 28 for genomic DNA extraction and PCR analysis of HTLV-I proviral DNA. Untreated PBMCs co-cultured with MT-2 cells, PBMCs alone, and mitomycin C-treated MT-2 cells alone were cultured in parallel as controls.
HTLV-I p19 Gag ELISA: ELISA was performed to quantify p19 in cell-free supernatants according to the manufacturer's instructions (ZeptoMetrix, Buffalo, N.Y.). Briefly, 50 μL of the kit p19 standard was added to 950 μL assay diluent in microtiter tubes and serially diluted 1:2. After washing the microtiter plate with 1× plate wash buffer, 200 μL of the diluted standards were added in duplicate to the coated wells. In duplicate, 200 μL of media was added as negative controls. Cell culture supernatants were diluted 1:9 with media and mixed with 50 μL of lysis buffer in duplicate. Two hundred microliters of diluted sample was added to the coated wells and incubated at 37° C. for 2 hours. […]

[1] = Cell viability of infected PBMCs by trypan blue dye exclusion; format: cell-based, human; settings: human, infected PBMCs, read-out: HTLV-I TC50; for CC50 at 2 weeks: 2 wks post infection; for CC50 at 3 weeks: 3 wks post infection; for CC50 at 4 weeks: 4 wks post infection
Description: as §1
(§2) Anti-HTLV-I Evaluations: HDP-TFV K^+ salt and tenofovir were evaluated for HTLV-I inhibition in human PBMCs co-cultured with mitomycin C treated MT-2 cells at four concentrations of each compound. AZT was evaluated in parallel as a control compound. […] Cell viability was monitored by trypan blue dye exclusion. AZT and tenofovir were not toxic to the infected PBMCs at concentrations up to 25 μM at 2, 3, or 4 weeks post infection.
as §2, with “Evaluations: HDP-CDV” for “Evaluations: HDP-TFV K^+ salt”, “and cidofovir” for “and tenofovir”, “AZT was” for “AZT and tenofovir were”

infected PBMCs = assay: as above; format: cell-based, human; settings: for toxicity as fresh compound was added to the cultures up to day 10: infected PBMC cultures; for CC50: infected PBMCs, read-out: HTLV-I TC50
Description: as §1, §2
as §2, with “Evaluations: HDP-CDV” for “Evaluations: HDP-TFV K^+ salt”, “and cidofovir” for “and tenofovir”, “AZT was” for “AZT and tenofovir were”

[2] = Primate T-lymphotropic virus 1, MT2, 336 h, 2 wks post infection, human PBMCs co-cultured with mitomycin C treated MT-2 cells
[3] = Primate T-lymphotropic virus 1, MT2, 504 h, 3 wks post infection, human PBMCs co-cultured with mitomycin C treated MT-2 cells
[4] = Primate T-lymphotropic virus 1, MT2, 672 h, 4 wks post infection, human PBMCs co-cultured with mitomycin C treated MT-2 cells
[5] = concentrations up to 25 μM at 2, 3, or 4 weeks post infection

| SMILES | concentration inhibiting HTLV-I replication as measured by p19 ELISA (HTLV-I) | antiviral activity (HTLV-I) | EC50 (HTLV-I; [2]) [µM] | EC50 (HTLV-I; [3]) [µM] | EC50 (HTLV-I; [4]) [µM] | CC50 at 2 weeks [1] [µM] | CC50 at 3 weeks [1] [µM] | CC50 at 4 weeks [1] [µM] | toxicity to the infected PBMCs (infected PBMCs; [5]) | suppression of virus replication greater than 50% (p19 ELISA) (HTLV-I) | concentration inhibiting HTLV-I virus replication from infected PBMCs (HTLV-I) | toxicity as fresh compound was added to the cultures up to day 10 (infected PBMCs) | other results |
| --- | --- | --- | --- | --- | --- | --- | --- | --- | --- | --- | --- | --- | --- |
| Cc1cn([C@H]2C[C@H](N=[N+]=[N-])[C@@H](CO)O2)c(=O)[nH]c1=O [AZT, 3′-azido-2′,3′-dideoxythymidine] | above 3 μM | no antiviral activity | > 25 | 3.2 | 2.6 | > 25 | > 25 | > 25 | not toxic |  |  |  |  |
| Nc1ccn(C[C@@H](CO)OCP(=O)(O)O)c(=O)n1 [Cidofovir, (S)-9-(3-hydroxy-2-phosphonylmethoxypropyl)cytosine] |  |  | > 100 | 87.8 | > 100 | > 100 | > 100 | 80 |  | did not suppress | 100 µM |  | suppression of virus replication greater than 50% (p19 ELISA) (HTLV-I; listed as cidofovir): not reached; toxicity to the infected PBMCs (infected PBMCs; 100 μM, following 4 weeks in culture): slightly toxic |
| CCCCCCCCCCCCCCCCOCCCOP(=O)(O)CO[C@H](CO)Cn1ccc(N)nc1=O [HDP-CDV, hexadecyloxypropyl cidofovir] |  |  | > 10 | 0.4 | > 10 | 7.5 | 3.2 | 1.4 |  | did not suppress; also recorded: not reached | above 3 μM | increasingly toxic | concentration showing moderate antiviral activity (HTLV-I; four weeks of infected PBMC culture, inhibition may be attributed to observed toxicity): ≥ 0.2 µM |
| CCCCCCCCCCCCCCCCOCCCOP(=O)(O)CO[C@H](C)Cn1cnc2c(N)ncnc21 [HDP-TFV, 3-(hexadecyloxy)propyl hydrogen ((R)-1-(6-amino-9H-purin 9-yl)propan-2-yloxy)methylphosphonate] | above 7 μM |  |  |  |  | > 10 | 6.3 | 1 |  |  |  | increasingly toxic | EC50 (HTLV-I; Primate T-lymphotropic virus 1, MT2, 336 h): 6.8 µM; EC50 (HTLV-I; Primate T-lymphotropic virus 1, MT2, 504 h): 0.9 µM; EC50 (HTLV-I; Primate T-lymphotropic virus 1, MT2, 672 h): 0.2 µM |
| C[C@H](Cn1cnc2c(N)ncnc21)OCP(=O)(O)O [Tenofovir, (R)-9-(2-phosphonylmethoxypropyl)adenine] |  | no antiviral activity |  |  |  |  |  |  | not toxic |  |  |  | EC50 (HTLV-I; 2 wks post infection, human PBMCs co-cultured with mitomycin C treated MT-2 cells): > 25 µM; EC50 (HTLV-I; 3 wks post infection, human PBMCs co-cultured with mitomycin C treated MT-2 cells): 10.3 µM; EC50 (HTLV-I; 4 wks post infection, human PBMCs co-cultured with mitomycin C treated MT-2 cells): 4.5 µM; CC50 (infected PBMCs; 2 wks post infection): > 25 µM; CC50 (infected PBMCs; 3 wks post infection): > 25 µM; CC50 (infected PBMCs; 4 wks post infection): > 25 µM |

From patent US20140011769A1, “Methods of Treating Retroviral Infections and Related Dosage Regimes” (Chimerix, Inc., priority 2012, published 2014)
